Assay results taken from ChEMBL document CHEMBL2384956, “Discovery of tetrahydropyrazolopyrimidine carboxamide derivatives as potent and orally active antitubercular agents” (ACS Med Chem Lett, 2013).
≈ marks a conversion by molar mass, not a printed value. Calls of active or inactive are those of the source. The calls are words filed in the database; no cut-off is given here.

Legend:
Cytochrome P450 3A4 = Cytochrome P450 3A4 (Homo sapiens, UniProt P08684); test: Inhibition of CYP3A4 in human liver microsomes using midazolam as substrate by LC-MS/MS analysis; format: ADME, Microsome
[1] = Plasma protein binding in mouse; format: ADME, cell-free; conditions: read-out: PPB (converted)
[2] = Cmax in mouse at 25 mg/kg, po; format: ADME, organism-based; parameters: dose 25 mg/kg, route oral; conditions: in vivo
[3] = tested on: Mycobacterium tuberculosis; test: Antitubercular activity against Mycobacterium tuberculosis infected in BALB/c mouse assessed as reduction in log10CFU at 100 mg/kg, po qd administered 7 days post-infection for 28 days relative to control; format: functional
[4] = AUC in mouse at 25 mg/kg, po; format: ADME, organism-based; parameters: dose 25 mg/kg, route oral; conditions: plasma
[5] = target: T1, Nuclear receptor subfamily 1 group I member 2 (Homo sapiens, UniProt O75469); test: Induction of PXR-mediated CYP3A4 expression in human DPX2 cells after 24 hrs by luciferase reporter gene assay; format: cell-based; conditions: dpx2, 24 h
T1 sequence (O75469 whole entry): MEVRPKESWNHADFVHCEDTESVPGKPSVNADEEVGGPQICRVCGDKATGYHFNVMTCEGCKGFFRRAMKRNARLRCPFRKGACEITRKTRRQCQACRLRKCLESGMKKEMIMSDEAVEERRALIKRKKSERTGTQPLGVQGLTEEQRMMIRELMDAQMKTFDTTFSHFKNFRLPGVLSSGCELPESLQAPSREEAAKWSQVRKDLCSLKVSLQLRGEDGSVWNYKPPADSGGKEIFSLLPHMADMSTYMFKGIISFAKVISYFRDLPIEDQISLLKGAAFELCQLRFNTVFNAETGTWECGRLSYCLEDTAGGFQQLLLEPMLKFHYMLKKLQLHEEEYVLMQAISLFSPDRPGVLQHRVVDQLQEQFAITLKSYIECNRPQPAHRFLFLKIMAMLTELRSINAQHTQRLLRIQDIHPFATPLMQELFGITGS

[6] = Aqueous solubility of the compound at pH 6.8; format: physicochemical
[7] = Cmax in mouse at 200 mg/kg, po; format: ADME, organism-based; parameters: dose 200 mg/kg, route oral; conditions: in vivo
Cytochrome P450 2D6 = Cytochrome P450 2D6 (Homo sapiens, UniProt P10635); test: Inhibition of CYP2D6 in human liver microsomes using bufuralol as substrate by LC-MS/MS analysis; format: ADME, Microsome
[8] = Clearance in mouse at 5 mg/kg, iv; format: ADME, organism-based; parameters: dose 5 mg/kg, route intravenous; conditions: in vivo
Cytochrome P450 3A5 = Cytochrome P450 3A5 (Homo sapiens, UniProt P20815); test: Inhibition of CYP3A5 in human liver microsomes using midazolam as substrate by LC-MS/MS analysis; format: ADME, Microsome
[9] = tested on: Mycobacterium tuberculosis; test: Antitubercular activity against Mycobacterium tuberculosis H37Rv ATCC 27294 […]; format: functional
Cytochrome P450 2C9 = Cytochrome P450 2C9 (Homo sapiens, UniProt P11712); test: Inhibition of CYP2C9 in human liver microsomes using diclofenac as substrate by LC-MS/MS analysis; format: ADME, Microsome
[10] = Elimination half life in mouse at 5 mg/kg, iv; format: ADME, organism-based; parameters: dose 5 mg/kg, route intravenous; conditions: in vivo, read-out: beta t1/2 (converted)
[11] = AUC in mouse at 200 mg/kg, po; format: ADME, organism-based; parameters: dose 200 mg/kg, route oral; conditions: plasma
[12] = Oral bioavailability in mouse at 25 mg/kg; format: ADME, organism-based; conditions: in vivo
[13] = Ratio of Cmax in mouse lung to Cmax in mouse plasma at 25 mg/kg, po; format: ADME, organism-based; parameters: dose 25 mg/kg, route oral
[14] = Plasma protein binding in human; format: ADME, cell-free; conditions: read-out: PPB (converted)
[15] = Ratio of AUC in mouse lung to AUC in mouse plasma at 25 mg/kg, po; format: ADME, organism-based; parameters: dose 25 mg/kg, route oral; conditions: read-out: Ratio AUC
[16] = Octanol-water partition coefficient, log P of the compound; format: physicochemical
[17] = Clearance in mouse liver microsomes; format: ADME, Microsome; conditions: read-out: CLH
[18] = Volume of distribution at steady state in mouse at 5 mg/kg, iv; format: ADME, organism-based; parameters: dose 5 mg/kg, route intravenous; conditions: in vivo, read-out: Vdss
[19] = Cmax in mouse; format: ADME, organism-based; conditions: in vivo
[20] = AUC in mouse; format: ADME, organism-based; conditions: plasma
[21] = tested on: Mycobacterium tuberculosis; test: Bactericidal activity against Mycobacterium tuberculosis H37Rv ATCC 27294 infected in activated human THP1 cells; format: functional, organism-based; conditions: THP-1

Sequence of Cytochrome P450 3A5 (P20815 whole entry): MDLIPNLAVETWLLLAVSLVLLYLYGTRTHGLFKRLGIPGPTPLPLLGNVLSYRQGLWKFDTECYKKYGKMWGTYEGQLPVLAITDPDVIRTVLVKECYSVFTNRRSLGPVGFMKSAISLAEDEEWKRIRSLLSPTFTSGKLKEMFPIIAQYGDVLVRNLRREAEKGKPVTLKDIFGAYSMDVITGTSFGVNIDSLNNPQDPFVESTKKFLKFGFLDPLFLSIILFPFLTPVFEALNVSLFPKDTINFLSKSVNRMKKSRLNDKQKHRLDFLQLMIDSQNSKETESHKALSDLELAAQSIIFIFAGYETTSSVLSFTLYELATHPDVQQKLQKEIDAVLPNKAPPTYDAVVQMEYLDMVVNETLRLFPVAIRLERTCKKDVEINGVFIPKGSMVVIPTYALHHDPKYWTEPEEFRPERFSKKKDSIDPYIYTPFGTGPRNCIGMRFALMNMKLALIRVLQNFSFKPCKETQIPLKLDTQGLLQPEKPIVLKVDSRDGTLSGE
Sequence of Cytochrome P450 2D6 (P10635 whole entry): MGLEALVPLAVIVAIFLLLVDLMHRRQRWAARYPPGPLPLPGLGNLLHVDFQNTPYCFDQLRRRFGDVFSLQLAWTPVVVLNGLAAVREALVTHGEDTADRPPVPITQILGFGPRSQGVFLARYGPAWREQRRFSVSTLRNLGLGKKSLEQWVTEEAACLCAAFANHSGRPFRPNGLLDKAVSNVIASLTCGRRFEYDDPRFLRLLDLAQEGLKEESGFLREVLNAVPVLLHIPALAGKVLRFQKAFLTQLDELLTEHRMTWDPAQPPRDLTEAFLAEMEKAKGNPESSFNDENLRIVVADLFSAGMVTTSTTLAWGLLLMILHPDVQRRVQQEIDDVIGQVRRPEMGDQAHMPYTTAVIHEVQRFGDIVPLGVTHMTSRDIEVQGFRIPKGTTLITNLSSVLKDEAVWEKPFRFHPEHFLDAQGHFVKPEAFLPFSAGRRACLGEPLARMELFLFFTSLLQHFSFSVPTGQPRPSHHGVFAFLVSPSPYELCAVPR
Sequence of Cytochrome P450 2C9 (P11712 whole entry): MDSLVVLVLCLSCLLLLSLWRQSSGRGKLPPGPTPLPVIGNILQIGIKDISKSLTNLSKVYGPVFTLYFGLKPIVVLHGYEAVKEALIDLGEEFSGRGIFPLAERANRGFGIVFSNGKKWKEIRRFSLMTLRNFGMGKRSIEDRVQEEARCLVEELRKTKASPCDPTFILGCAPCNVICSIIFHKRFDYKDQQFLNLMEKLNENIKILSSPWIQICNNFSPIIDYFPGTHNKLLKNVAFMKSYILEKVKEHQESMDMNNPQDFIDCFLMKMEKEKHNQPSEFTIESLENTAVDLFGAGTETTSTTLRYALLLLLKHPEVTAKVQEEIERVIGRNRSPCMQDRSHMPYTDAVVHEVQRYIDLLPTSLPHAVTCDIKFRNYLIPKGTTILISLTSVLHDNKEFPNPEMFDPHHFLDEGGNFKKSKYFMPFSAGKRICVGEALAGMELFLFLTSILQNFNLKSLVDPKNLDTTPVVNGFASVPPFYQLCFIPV
Sequence of Cytochrome P450 3A4 (P08684 whole entry): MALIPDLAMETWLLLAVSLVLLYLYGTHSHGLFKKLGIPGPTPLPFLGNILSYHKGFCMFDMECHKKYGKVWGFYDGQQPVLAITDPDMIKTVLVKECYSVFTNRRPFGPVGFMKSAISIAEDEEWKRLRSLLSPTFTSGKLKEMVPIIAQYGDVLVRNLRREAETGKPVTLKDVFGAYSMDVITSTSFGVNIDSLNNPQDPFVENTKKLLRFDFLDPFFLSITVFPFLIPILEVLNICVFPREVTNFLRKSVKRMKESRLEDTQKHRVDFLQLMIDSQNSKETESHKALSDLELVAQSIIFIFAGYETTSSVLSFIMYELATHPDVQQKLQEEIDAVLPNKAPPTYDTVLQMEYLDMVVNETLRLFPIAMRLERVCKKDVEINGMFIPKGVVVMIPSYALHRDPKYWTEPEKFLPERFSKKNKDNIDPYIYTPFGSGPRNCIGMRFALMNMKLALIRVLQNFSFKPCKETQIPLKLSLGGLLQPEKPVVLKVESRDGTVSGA

SMILES | inhibition (INH) (Cytochrome P450 3A4) | fraction unbound [1] | Cmax [2] [µM] | Activity [3] | AUC [4] [µM·h] | Activity [5] | solubility [6] [µM] | inhibition (INH) (Cytochrome P450 2D6) | clearance [8] [mL/min/kg] | inhibition (INH) (Cytochrome P450 3A5) | MIC [9] [µM] | inhibition (INH) (Cytochrome P450 2C9) | half-life [10] [h] | bioavailability [12] [%] | Kp [13] | fraction unbound [14] | Kp [15] | logP [16] | microsomal CLint [17] [µL/min/mg] | Vd [18] [L/kg] | also measured
O=C(NCc1ccc(F)cc1)c1cnn2c1N[C@@H](c1ccc(OC3COC3)cc1)C[C@H]2C(F)(F)F | Not Active | 0.024 | 3.7 | inactive | 41.7 | Not Active | 9 (≈ 4.41 µg/mL) | Not Active | 9.9 | Not Active | 0.73 (≈ 0.358 µg/mL) | Not Active | 4.1 | 52 | 2.7 | 0.027 | 2.2 | 5.1 | 8.92 | 2.5 | Cmax [7]: 7.3 µM; AUC [11]: 71.3 µM·h
CC[C@@H](CO)NCCN[C@@H](CC)CO |  |  |  | Active |  |  |  |  |  |  |  |  |  |  |  |  |  |  |  |  | 
Cc1ccc([C@H]2C[C@@H](C(F)(F)F)n3ncc(C(=O)NCc4ccc(F)cn4)c3N2)nc1 |  | 0.128 |  |  |  |  | 347 (≈ 151 µg/mL) |  |  |  | 52.2 (≈ 22.7 µg/mL) |  |  |  |  | 0.181 |  | 3.2 |  |  | 
Cc1ccc([C@H]2C[C@@H](C(F)F)n3ncc(C(=O)NCc4ccc(F)cc4)c3N2)nc1 | Not Active | 0.052 | 5.5 | inactive | 16.8 | Not Active | 212 (≈ 88.1 µg/mL) | Not Active | 24 | Not Active | 0.6 (≈ 0.249 µg/mL) | Not Active | 1.8 | 53 | 1.7 | 0.043 | 2.8 | 4.6 | 85.6 | 2.6 | Cmax [7]: 15.2 µM; AUC [11]: 77.7 µM·h
COCCOc1ccc([C@H]2C[C@@H](C(F)(F)F)n3ncc(C(=O)NCc4ccc(F)cn4)c3N2)cc1 |  | 0.108 |  |  |  |  | 20 (≈ 9.87 µg/mL) |  |  |  | 3.7 (≈ 1.83 µg/mL) |  |  |  |  | 0.122 |  | 3.2 |  |  | 
COc1ccc(CNC(=O)c2cnn3c2N[C@@H](c2ccc(C)cc2)C[C@H]3C(F)(F)F)cn1 |  | < 0.01 |  |  |  |  | < 4 |  |  |  | 0.47 (≈ 0.209 µg/mL) |  |  |  |  | < 0.01 |  | 5.1 |  |  | 
Cc1ccc([C@H]2C[C@@H](C(F)(F)F)n3ncc(C(=O)NCc4ccc(F)cc4)c3N2)nc1 | Not Active | 0.042 | 3.6 | inactive | 25 | Not Active | 9 (≈ 3.9 µg/mL) | Not Active | 38 | Not Active | 0.44 (≈ 0.191 µg/mL) | Not Active | 1.3 | 100 | 1.9 | 0.039 | 2.1 | 4.4 | 71.8 | 3.4 | Cmax [7]: 11.8 µM; AUC [11]: 91.9 µM·h
Cc1ccc([C@H]2C[C@@H](C(F)(F)F)n3ncc(C(=O)NCc4ccc(F)cc4)c3N2)cc1 | Not Active | < 0.01 | 3.6 |  | 18.9 | Not Active | < 4 | Not Active | 31 | Not Active | 0.15 (≈ 0.0649 µg/mL) | Not Active | 4.2 | 65 | 3.2 | < 0.01 | 4.5 | 6.3 | 43.5 | 6.3 | log10cfu [3]: 3.5; Cmax [19]: 8.3 µM; AUC [20]: 91.1 µM·h; Activity [21]: Active
O=C(NCc1ccc(F)cc1)c1cnn2c1N[C@@H](c1ccc(N3CCOCC3)cc1)C[C@H]2C(F)(F)F |  | 0.016 |  |  |  |  | < 4 |  |  |  | 0.87 (≈ 0.438 µg/mL) |  |  |  |  | 0.018 |  | 4.8 |  |  | 
Cc1ccc([C@H]2C[C@@H](C(F)(F)F)n3ncc(C(=O)NCc4ccc(F)cn4)c3N2)cc1 |  | < 0.01 |  |  |  |  | < 4 |  |  |  | 0.83 (≈ 0.36 µg/mL) |  |  |  |  | 0.01 |  | 4.9 |  |  | 
Cc1ccc([C@H]2C[C@@H](C(F)(F)F)n3ncc(C(=O)NCc4ccc(F)cc4)c3N2)o1 |  | < 0.01 |  |  |  |  | < 4 |  |  |  | 0.13 (≈ 0.0549 µg/mL) |  |  |  |  | < 0.01 |  | 5.5 |  |  | 
COCCOc1ccc([C@H]2C[C@@H](C(F)(F)F)n3ncc(C(=O)NCc4ccc(F)cc4)c3N2)cc1 |  | 0.015 |  |  |  |  | 6 (≈ 2.95 µg/mL) |  |  |  | 0.44 (≈ 0.217 µg/mL) |  |  |  |  | 0.019 |  | 4.1 |  |  | 
